According to patent US20180022780A1, “STABILIZATION ADRENOMEDULLIN DERIVATIVES AND USE THEREOF” (priority 2014, published 2018):
Numbered stars: 1 amine (or outer) side, 2 acyl side, 3 side chain; on linkers, the order of the positions; unused ones are H or OH. Bridge positions count the residues as written; N and C are the ends. Square brackets hold non-standard residues; d marks the D form. Peptide text beside a SMILES is read from it. * marks the point of attachment. Abu(4-yl) = O=C([C@H](CC[*:3])N[*:1])[*:2]; Palmitoyl = CCCCCCCCCCCCCCCC(=O)*; Orn = NCCC[C@H](N)C(=O)O; Dap = NC[C@H](N)C(=O)O

Molecular target: T1, CLR fused to EYFP and RAMP2 fused to ECFP (Homo sapiens, UniProt O60895+Q16602)
T1 construct: EYFP; ECFP; expressed in transfected cells; host or cells: HEK-293 cells, transient co-transfection
Assay: cAMP assay (CRE luciferase reporter, HEK-293 cells transiently co-transfected with CLR and RAMP2)
Type: cell-based
Settings: Table 2, cAMP assay; HEK-293, CLR/RAMP2, CRE luciferase, 3 h stimulation, normalized to [G^14]ADM(14-52)
Description: HEK-293 cells (human embryonic kidney cells) were cultured in Ham's F-12/DMEM (1/1; v/v) containing 15% FCS under humidified atmosphere at 37° C. and 5% CO2 in 75 cm^2 cell culture flasks.
Cells were cultured in 75 cm^2 flasks to 70-80% confluency. 45 μl Metafectene® Pro was diluted in 900 μl Ham's F-12/DMEM (1/1; v/v) and incubated for 20 min at room temperature. 9000 ng plasmid containing DNA of CLR fused to EYFP and 3000 ng plasmid containing DNA of RAMP2 fused to ECFP were dissolved in 900 μl Ham's F-12/DMEM (1/1; v/v). The plasmid solution was mixed with the Metafectene® Pro solution and incubated for 25 min at room temperature. Medium was removed from the cells and replaced by 6 ml Ham's F-12/DMEM (1/1; v/v) containing 15% FCS. After addition of transfection solution the cells were incubated for 3 h under humidified atmosphere at 37° C. and 5% CO2.
For the second transfection 45 μl Metafectene® Pro was diluted in 900 μl Ham's F-12/DMEM (1/1; v/v) and incubated for 20 min at room temperature. 12000 ng of pGL4.29[luc2P/CRE/Hygro] plasmid containing DNA for the luciferase reporter gene luc2P (with CRE promotor region) were dissolved in 900 μl Ham's F-12/DMEM (1/1; v/v). The plasmid solution was mixed with the Metafectene® Pro solution and incubated for 25 min at room temperature. Medium was removed from the cells and replaced by 6 ml Ham's F-12/DMEM (1/1; v/v) containing 15% FCS. After addition of transfection solution the cells were incubated under humidified atmosphere at 37° C. and 5% CO2 over night.
For the coating of 96-well-plates 50 μl of a Poly-D-Lysine solution (1 ml stock solution of Poly-D-Lysin-hydrobromid/10 ml DPBS) were pipetted in each well and incubated for 40 min. After removal of the Poly-D-Lysine each well was washed with 50 μl DPBS. Transiently transfected cells were detached from the cell culture flask by removal of the medium, twofold washing with 5 m1 DPBS and resuspending in 13 ml Ham's F-12/DMEM (1/1; v/v) containing 15% FCS. 90000 to 120000 cells in 150 μl Ham's F-12/DMEM (1/1; v/v) containing 15% FCS were seeded per well and the plates were incubated under humidified atmosphere at 37° C. and 5% CO2 over night.
For each ligand a serial dilution giving eight different concentrations was prepared using Ham's F-12/DMEM (1/1; v/v). Before stimulation the medium on the cells was replaced by 100 μl Ham's F-12/DMEM (1/1; v/v) and the plates were incubated for 1 h under humidified atmosphere at 37° C. and 5% CO2. For stimulation the medium was removed again and the cells were incubated for 3 h in 80 μl of ligand-solution under humidified atmosphere at 37° C. and 5% CO2. In addition 80 μl of a 5 μM forskolin solution (in Ham's F-12/DMEM (1/1; v/v)) was used as a positive control and 80 μl of Ham's F-12/DMEM (1/1; v/v) as a negative control. Each concentration and the controls were tested as triplicates.
After 3 h of stimulation, the solutions were removed and the cells were washed with 50 μl of Ham's F-12/DMEM (1/1; v/v) per well. After 10 min incubation in 30 μl of Ham's F-12/DMEM (1/1; v/v) at room temperature, 30 μl of luciferase-solution (ONE-Glo™ Luciferase Assay System) was added and the luminescence was directly measured using an Infinite M200 (Tecan).
Data analysis of the luminescence measurement was carried out with GraphPad Prism 5. Therefore the measured luminescence values of each plate were first corrected on the base of the respective average of forskolin stimulation. Afterwards they were normalized to [G^14]ADM(14-52) which was used as standard peptide in every assay. After correction and normalization data was analysed using non-linear regression giving dose-response curves for each tested ligand.

T1 sequence (Q16602 23-461): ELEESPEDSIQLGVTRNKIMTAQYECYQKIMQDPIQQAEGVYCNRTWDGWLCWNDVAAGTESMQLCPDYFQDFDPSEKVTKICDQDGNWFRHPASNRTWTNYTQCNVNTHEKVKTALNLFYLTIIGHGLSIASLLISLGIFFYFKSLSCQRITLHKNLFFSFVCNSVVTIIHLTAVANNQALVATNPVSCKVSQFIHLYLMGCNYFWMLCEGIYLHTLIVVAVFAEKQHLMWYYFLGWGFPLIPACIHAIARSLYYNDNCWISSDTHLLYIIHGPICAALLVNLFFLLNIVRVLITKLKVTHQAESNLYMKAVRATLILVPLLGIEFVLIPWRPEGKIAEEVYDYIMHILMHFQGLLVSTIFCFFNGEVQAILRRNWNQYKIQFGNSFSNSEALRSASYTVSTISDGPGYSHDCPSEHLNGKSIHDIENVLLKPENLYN
T1 sequence (O60895 43-175): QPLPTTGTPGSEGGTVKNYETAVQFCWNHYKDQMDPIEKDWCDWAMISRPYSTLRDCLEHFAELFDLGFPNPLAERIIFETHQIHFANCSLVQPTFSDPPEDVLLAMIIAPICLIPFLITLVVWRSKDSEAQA

| EC50 | Compound |
| --- | --- |
| 20 nM | CC[C@H](C)[C@H](NC(=O)[C@H](CCC(N)=O)NC(=O)[C@H](Cc1c[nH]cn1)NC(=O)[C@H](C)NC(=O)[C@H](CC(C)C)NC(=O)[C@H](CCCCN)NC(=O)[C@H](CCC(N)=O)NC(=O)[C@@H](NC(=O)[C@@H](NC(=O)[C@@H]1CCCNC(=O)C[C@H](NC(=O)CNC(=O)CN)C(=O)N[C@@H](CCCNC(=N)N)C(=O)N[C@@H](Cc2ccccc2)C(=O)NCC(=O)N[C@@H]([C@@H](C)O)C(=O)N1)[C@@H](C)O)C(C)C)C(=O)N[C@@H](Cc1ccc(O)cc1)C(=O)N[C@@H](CCC(N)=O)C(=O)N[C@@H](Cc1ccccc1)C(=O)N[C@H](C(=O)N[C@@H](CC(=O)O)C(=O)N[C@@H](CCCCN)C(=O)N[C@@H](CC(=O)O)C(=O)N[C@@H](CCCCN)C(=O)N[C@@H](CC(=O)O)C(=O)N[C@@H](CC(N)=O)C(=O)N[C@H](C(=O)N[C@@H](C)C(=O)N1CCC[C@H]1C(=O)N[C@@H](CCCNC(=N)N)C(=O)N[C@@H](CO)C(=O)N[C@@H](CCCCN)C(=O)N[C@H](C(=O)N[C@@H](CO)C(=O)N1CCC[C@H]1C(=O)N[C@@H](CCC(N)=O)C(=O)NCC(=O)N[C@@H](Cc1ccc(O)cc1)C(N)=O)[C@@H](C)CC)C(C)C)[C@@H](C)O [Example 8, ((2S,5S,11S,14S,21S)-21-(2-(2-aminoacetamido)acetamido)-5-benzyl-2-(3-guanidinopropyl)-11-((R)-1-hydroxyethyl)-3,6,9,12,19,22-hexaoxo-1,4,7,10,13,18-hexaazacyclodocosane-14-carbonyl)-L-threonyl-ADM(22-52)] (H-GGDRFGT[Orn]TVQKLAHQIYQFTDKDKDNVAPRSKISPQGY-NH2; lactam 3-8) |
| 67 nM | CC[C@H](C)[C@H](NC(=O)[C@H](CCC(N)=O)NC(=O)[C@H](Cc1c[nH]cn1)NC(=O)[C@H](C)NC(=O)[C@H](CC(C)C)NC(=O)[C@H](CCCCN)NC(=O)[C@H](CCC(N)=O)NC(=O)[C@@H](NC(=O)[C@@H](NC(=O)[C@@H]1CC(=O)NC[C@H](NC(=O)CNC(=O)CN)C(=O)N[C@@H](CCCNC(=N)N)C(=O)N[C@@H](Cc2ccccc2)C(=O)NCC(=O)N[C@@H]([C@@H](C)O)C(=O)N1)[C@@H](C)O)C(C)C)C(=O)N[C@@H](Cc1ccc(O)cc1)C(=O)N[C@@H](CCC(N)=O)C(=O)N[C@@H](Cc1ccccc1)C(=O)N[C@H](C(=O)N[C@@H](CC(=O)O)C(=O)N[C@@H](CCCCN)C(=O)N[C@@H](CC(=O)O)C(=O)N[C@@H](CCCCN)C(=O)N[C@@H](CC(=O)O)C(=O)N[C@@H](CC(N)=O)C(=O)N[C@H](C(=O)N[C@@H](C)C(=O)N1CCC[C@H]1C(=O)N[C@@H](CCCNC(=N)N)C(=O)N[C@@H](CO)C(=O)N[C@@H](CCCCN)C(=O)N[C@H](C(=O)N[C@@H](CO)C(=O)N1CCC[C@H]1C(=O)N[C@@H](CCC(N)=O)C(=O)NCC(=O)N[C@@H](Cc1ccc(O)cc1)C(N)=O)[C@@H](C)CC)C(C)C)[C@@H](C)O [Example 3, ((2S,5S,11S,14S,19S)-19-(2-(2-aminoacetamido)acetamido)-5-benzyl-2-(3-guanidinopropyl)-11-((R)-1-hydroxyethyl)-3,6,9,12,16,20-hexaoxo-1,4,7,10,13,17-hexaazacycloicosane-14-carbonyl)-L-threonyl-ADM(22-52)] (H-GG[Dap]RFGTDTVQKLAHQIYQFTDKDKDNVAPRSKISPQGY-NH2; lactam 3-8) |
| 6.8 nM | CC[C@H](C)[C@H](NC(=O)[C@H](CCC(N)=O)NC(=O)[C@H](Cc1c[nH]cn1)NC(=O)[C@H](C)NC(=O)[C@H](CC(C)C)NC(=O)[C@H](CCCCN)NC(=O)[C@H](CCC(N)=O)NC(=O)[C@@H](NC(=O)[C@@H](NC(=O)[C@@H]1CSCC[C@H](NC(=O)CNC(=O)CN)C(=O)N[C@@H](CCCNC(=N)N)C(=O)N[C@@H](Cc2ccccc2)C(=O)NCC(=O)N[C@@H]([C@@H](C)O)C(=O)N1)[C@@H](C)O)C(C)C)C(=O)N[C@@H](Cc1ccc(O)cc1)C(=O)N[C@@H](CCC(N)=O)C(=O)N[C@@H](Cc1ccccc1)C(=O)N[C@H](C(=O)N[C@@H](CC(=O)O)C(=O)N[C@@H](CCCCN)C(=O)N[C@@H](CC(=O)O)C(=O)N[C@@H](CCCCN)C(=O)N[C@@H](CC(=O)O)C(=O)N[C@@H](CC(N)=O)C(=O)N[C@H](C(=O)N[C@@H](C)C(=O)N1CCC[C@H]1C(=O)N[C@@H](CCCNC(=N)N)C(=O)N[C@@H](CO)C(=O)N[C@@H](CCCCN)C(=O)N[C@H](C(=O)N[C@@H](CO)C(=O)N1CCC[C@H]1C(=O)N[C@@H](CCC(N)=O)C(=O)NCC(=O)N[C@@H](Cc1ccc(O)cc1)C(N)=O)[C@@H](C)CC)C(C)C)[C@@H](C)O [Example 16, ((3R,6S,12S,15S,18S)-18-(2-(2-aminoacetamido)acetamido)-12-benzyl-15-(3-guanidinopropyl)-6-((R)-1-hydroxyethyl)-5,8,11,14,17-pentaoxo-1-thia-4,7,10,13,16-pentaazacycloicosane-3-carbonyl)-L-threonyl-ADM(22-52)] (H-GG[Abu(4-yl)]RFGTCTVQKLAHQIYQFTDKDKDNVAPRSKISPQGY-NH2; thioether 3-8) |
| 29 nM | CCCCCCCCCCCCCCCC(=O)NCCCC[C@H](N)C(=O)NCC(=O)N[C@H]1CCC(=O)NCCCC[C@@H](C(=O)N[C@H](C(=O)N[C@H](C(=O)N[C@@H](CCC(N)=O)C(=O)N[C@@H](CCCCN)C(=O)N[C@@H](CC(C)C)C(=O)N[C@@H](C)C(=O)N[C@@H](Cc2c[nH]cn2)C(=O)N[C@@H](CCC(N)=O)C(=O)N[C@H](C(=O)N[C@@H](Cc2ccc(O)cc2)C(=O)N[C@@H](CCC(N)=O)C(=O)N[C@@H](Cc2ccccc2)C(=O)N[C@H](C(=O)N[C@@H](CC(=O)O)C(=O)N[C@@H](CCCCN)C(=O)N[C@@H](CC(=O)O)C(=O)N[C@@H](CCCCN)C(=O)N[C@@H](CC(=O)O)C(=O)N[C@@H](CC(N)=O)C(=O)N[C@H](C(=O)N[C@@H](C)C(=O)N2CCC[C@H]2C(=O)N[C@@H](CCCNC(=N)N)C(=O)N[C@@H](CO)C(=O)N[C@@H](CCCCN)C(=O)N[C@H](C(=O)N[C@@H](CO)C(=O)N2CCC[C@H]2C(=O)N[C@@H](CCC(N)=O)C(=O)NCC(=O)N[C@@H](Cc2ccc(O)cc2)C(N)=O)[C@@H](C)CC)C(C)C)[C@@H](C)O)[C@@H](C)CC)C(C)C)[C@@H](C)O)NC(=O)[C@H]([C@@H](C)O)NC(=O)CNC(=O)[C@H](Cc2ccccc2)NC(=O)[C@H](CCCNC(=N)N)NC1=O [Example 12, ((2S,5S,11S,14S,23S)-23-(2-((S)-2-amino-6-palmitamidohexanamido)acetamido)-5-benzyl-2-(3-guanidinopropyl)-11-((R)-1-hydroxyethyl)-3,6,9,12,20,24-hexaoxo-1,4,7,10,13,19-hexaazacyclotetracosane-14-carbonyl)-L-threonyl-ADM(22-52)] (H-K(Palmitoyl)GERFGTKTVQKLAHQIYQFTDKDKDNVAPRSKISPQGY-NH2; lactam 3-8) |
